{
  "source": "patent US6120997A",
  "about": "“Nucleic acid binders having an hydroxyamine motif” (The Scripps Research Institute, priority 1998, dated 2000)",
  "key": {"[1]": {"experiment": "13C-NMR titration of neamine with sodium sulfate in water", "format": "binding", "conditions": "pH 3.5", "source_text": "FIGS. 4A-4D illustrate the titration of neamine (12) with sodium sulfate at pH 3.5: (A) Titration curve for C1'. (B) Job plot; x=% complex formation. (C) Structure of neamine indicating the sites of maximum observed shift. (D) Maximum observed shift.\n(§1) To investigate whether 1,3-hydroxyamine substructures may be involved in binding in aqueous solution, we turned our attention to neamine (12; FIG. 4), a pseudodisaccharide substructure commonly found in a wide range of aminoglycoside antibiotics. […] These weak forces may, however, be enhanced by increasing the charge of the interacting species. In fact, many recognition events involving nucleic acids--including those by aminoglycosides--are likely to have a strong contribution from their polyionic character. We therefore turned our attention to sulfate, as it is a tetrahedral oxyanion similar to phosphate and its double negative charge mimics the effect of a polyanion. Furthermore, it has a defined ionization state. Since the spectra of aminoglycosides are highly dependent on pH, and even minor pH changes can outweigh any small complexation induced shifts, we performed binding studies at low pH, where neamine is fully protonated. […] Analysis of ^13 C-NMR spectra provided a clearer picture (FIG. 4). […] Thus, the selectivity found in aqueous solution is in full agreement with the order of binding affinities determined in the model compounds."}, "[2]": {"tested_on": "bacterial protein synthesis", "conditions": "cited from earlier work"}, "[3]": {"target": "AS-wt", "experiment": "SPR binding of aminoglycosides to decoding region A-site model AS-wt", "set-up": "species or system E. coli", "experimental": "The RNA binding properties of 100-800 were analyzed using a surface plasmon resonance based assay that was recently developed in these laboratories. This assay allows the determination of both affinity and specificity of small molecule-RNA interactions. For the analysis, the compounds were injected over a matrix containing RNA that was immobilized through a biotin tag and the equilibrium binding values were recorded at various concentrations.\nNon-linear curve fitting was then used to determine the values of the dissociation constants (KD). The specificity of binding, i.e. the ability to discriminate between different RNA sequences was evaluated by comparing the binding to the target sequence (AS-wt) and the negative control (AS-U1495A). The ratio of KD(AS-U1495A) to KD(AS-wt) was taken to be a representation of the specificity of the binding event.\nFor the quantitative measurement of aminoglycoside binding to these sequences, we utilized our recently developed SPR-based assay. Biotinylated derivatives of all sequences were prepared by in vitro transcription in the presence of guanosine 5'-monophosphorothioate followed by alkylation with a biotin iodoacetamide derivative. The RNA conjugates were then immobilized onto streptavidin coated SPR-sensorchips for analysis.\nIn the same manner as illustrated for paromomycin, a panel of aminoglycosides was screened and the results are compiled in the table of FIGS. 46 and 47. In addition to the naturally occuring aminoglycoside antibiotics, some of the compounds in FIG. 46 are synthetically derived, unnatural aminoglycosides. The number of independent determinations for each dissociation constant ranged from 1-3. […] All data were recorded under near physiological salt conditions (HBS-buffer: 150 mM NaCl, 10 mM HEPES, pH7.4, 3.4 mM EDTA) unless noted otherwise. Data points were taken at concentrations ranging from […]. Below this concentration range, surface transport limitations prevent the attainment of equilibrium.\nPlasmon resonance and antimicrobial testing for Example 4. Synthesis of the biotinylated RNA and surface plasmon resonance detected binding experiments were performed as described vida supra. Solution conditions: 150 mM NaCl, 10 mM HEPES (pH 7.4), 3.4 mM EDTA. KD determination from the binding curves.\nThe fitting routine of the program kaleidagraph was used for all calculations. The starting values for a and b were set to 1 and 0 respectively. The number of KD values used in the fitting was adjusted depending on the observed range of equivalents bound but generally varied from 3 to 4.\nGeneral Procedures for SPR Binding Studies done in Example 5. Samples were prepared by serial dilutions from stock solutions in RNase free microfuge tubes (Ambion) and were centrifuged at 14000 rpm for degassing. Unless otherwise noted, all binding studies were carried out using HBS buffer (Pharmacia Biosensor AB) which was used as obtained. All procedures for binding studies were automated as methods using repetitive cycles of sample injection and regeneration. Typically, buffer was injected in the first two cycles to establish a stable baseline value. Samples were injected at a flowrate of […] using either the KINJECT command. All aminoglycoside samples were injected from autoclaved 7 mm plastic vials that were capped with pierceable plastic crimp caps. To minimize carry over, samples were injected in order of increasing concentration. The running buffer was identical to the injection buffer. Expected values for the equilibrium response of one equivalent of analyte were calculated from the relative molecular weight of the analyte and the immobilized RNA ligand in each flowcells and adjusted with a correction factor of 0.76 which arises from the different molar refractive indices of RNA and the analyte. […]"}, "[4]": {"tested_on": "Escherichia coli (ATCC 25922)", "experiment": "minimum inhibitory concentration, broth dilution technique", "format": "cell-based", "conditions": "E. coli, liquid culture", "source_text": "We reasoned that this modification would provide the cleanest test for probing the ionic contribution, since hydrogen bond donor abilities, electronegativity and steric demand are similar for both functional groups. In order to learn how well the model system correlates with in vivo activity, we checked the new compounds for antibacterial activity against three bacterial strains using the disc method (Kirby-Bauer technique). The minimum inhibitory concentrations (MICs) of the compounds were then determined using the broth dilution technique. For antibiotic testing protocols, see: (a) Disk testing protocols: Phillips, I.; Williams, D., in Laboratory Methods in Antimicrobial Chemotherapy, Garrod, L. (ed.) Churchill Livingstone Press: Edinburgh, 1978, pp. 3-30. (b) MIC determination: Waterworth, P. M., in Laboratory Methods in Antimicrobial Chemotherapy, Garrod, L. (ed.) Churchill Livingstone Press: Edinburgh, 1978, pp. 31-40; Barry, A. L. The Antimicrobic Susceptibility Test: Principles and Practice, Lea and Febiger: Philadelphia (1976). (c) Standards: Lorian, V., Antibiotics in Laboratory Medicine (2nd. ed.), Williams and Wilkins: Baltimore, 1986.\nFIG. 39A gives the zone diameters measured for the three bacterial strains. The zone diameters measured for the strains with known antibiotics are well within the accepted limits. […] It is worth noting that some testing protocols recommend overnight growth of the cultures, rather than the minimum time required to obtain good growth of the control. MIC values were tested for several of the control antibiotics using overnight growth, and the MIC values observed were 2-4× greater than those observed for 4-6 hour growth.\nMinimal Inhibitory Concentration (MIC) testing. E. coli ATCC 25922 was grown in Mueller-Hinton broth (cation-adjusted, BBL Microbiology Systems) to an optical density of approx. 0.5 (absorbance read at 600 nm), then diluted to an OD600 of 0.1. Samples of antibiotic were prepared in Mueller-Hinton broth, typically a series of 2-fold dilutions from […]. […] The absorbance of each sample was read (1=600 nm), and MIC was considered to be the lowest antibiotic concentration at which the absorbance was less than 1% of the no-antibiotic control."}, "[5]": {"experiment": "NMR binding study with dimethylphosphate in water", "conditions": "concentration ranges accessible by NMR", "source_text": "as §1"}, "[6]": {"target": "Rev27 (synthetic Rev34-50 RNA-binding peptide with flanking Ala and N-terminal Cys) (Human immunodeficiency virus 1) (UniProt P04618)", "sequence (P04618 whole entry)": "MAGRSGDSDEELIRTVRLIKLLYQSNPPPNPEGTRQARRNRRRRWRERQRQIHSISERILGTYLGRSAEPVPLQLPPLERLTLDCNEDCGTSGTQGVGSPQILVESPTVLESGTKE", "experiment": "SPR", "conditions": "pH 7.4, 10 mM HEPES, 150 mM NaCl, 150 mM Na2SO4, 3.4 mM EDTA, 5 mM DTT, 10 C; 1:1; FIG. 7 legend gives 200 nM; Kd <10 nM at 5 C in 300 mM NaCl without sulfate"}, "[7]": {"experiment": "NMR dilution experiments of 1:1 salt complexes in DMSO-d6 (phosphodiester recognition)", "format": "binding", "experimental": "(§2) [a] NMR dilution experiments with the preformed 1:1 salt complexes were performed in DMSO-d6 at […]; [b] calculated maximum shift at full complexation in ppm.\n(§3) In order to determine binding constants we prepared defined 1:1 salt complexes and measured their dissociation upon stepwise dilution in [D6 ]DMSO by following the shifts of NH and OH resonances. The chemical shift values of the totally uncomplexed state (o) and the fully complexed state (n) and the stability constant Ka were subsequently determined by curve fitting. […] In all cases, data could be fitted to a 1:1 binding isotherm. […] This order mirrors the order of binding affinities and is consistent with the interpretation that differential involvement of the hydroxyl group in hydrogen bonding provides for the energetic differences in complexation."}, "[8]": {"experiment": "NMR dilution experiments with chloride counterion in DMSO-d6", "format": "binding", "experimental": "as §2, §3"}},
  "data": [
    {"compound": "NC[C@H]1O[C@H](O[C@H]2[C@H](O)[C@@H](O)[C@H](N)C[C@@H]2N)[C@H](N)[C@@H](O)[C@@H]1O", "note": "[Neamine]", "values": [
      {"measurement": "binding stoichiometry with sulfate (method of Job)", "setting": "[1]", "result": "1:1 complex"},
      {"measurement": "effect on bacterial protein synthesis (in words)", "setting": "[2]", "result": "induces miscoding during translation"},
      {"measurement": "Kd", "setting": "[3]; 150 mM NaCl, 10 mM HEPES (pH 7.4), 3.4 mM EDTA, read-out: dissociation constant, AS-wt", "result": 7.8, "unit": "µM"},
      {"measurement": "specificity for AS-wt over negative controls (in words)", "setting": "[3]; Example 5, HBS-buffer", "result": "moderate specificity for AS-wt over AS-U1495A"},
      {"measurement": "specificity for AS-wt relative to AS-U1495A", "setting": "[3]; KD(AS-U1495A)/KD(AS-wt)", "result": "approximately 4 fold"},
      {"measurement": "antibacterial activity / MIC compared with neomycin B (in words)", "setting": "[4]", "result": "inferior anti microbial activity"},
      {"measurement": "binding to dimethylphosphate in water (in words)", "setting": "[5]", "result": "no detectable binding"}
    ]},
    {"compound": "wt-RRE-II", "values": [
      {"measurement": "Kd", "setting": "[6]", "result": 215, "unit": "nM"}
    ]},
    {"compound": "CO[C@H]1O[C@H](CNCc2ccccc2)[C@@H](O)[C@H](OCc2ccccc2)[C@H]1OCc1ccccc1", "note": "[Compound 3]", "values": [
      {"measurement": "selectivity for dimethylphosphate over chloride", "setting": "[7]", "result": 7, "unit": "fold"},
      {"measurement": "chloride binding (in words)", "setting": "[8]", "result": "lower chloride binding compared to 2, 4 and 5"}
    ]}
  ]
}
